The values that follow come from patent US5147652A, “Autobiotics and their use in eliminating nonself cells in vivo” (priority 1990, dated 1992).

In assay [1] the test system is Candida albicans. The assay is described as follows: Effect on proliferation of Candida albicans, disk on agar surface (A). Format: cell-based. As to the method:
Stock solutions of the following test compounds were dissolved in physiological saline. However DOV was dissolved in water.
C. albicans isolated from clinical specimens were density grown in SubbaRow's broth at 35 C. A loopful of yeast suspension was evenly spread on the surface of Muller-Hilton agar plates (7cm diameter) with a sterile cotton applicator and incubated for 12 hours. The test compounds were placed on the surface of the sensidisks (Whatmann No. 17 paper, 6mm diameter) in a volume of 5, 10, 20, and 50 μliter of stock solutions and made up a final volume of 50 μliter with saline. The plates then were placed and kept at 37 C for 24 hours (*) and 48 hours (**) when the diameters of the inhibitory rings were recorded. Photographs were also taken of plates.

In assay [2] the test system is implantation of fertilized mouse eggs. The assay can be described thus: Preventing pregnancy in mice. The assay is classed as in vivo. As to the method:
Six 5 month old female CD-1 mice were injected intraperitoneally with N-1 hydroxy acetonyl maleimide for 12 days (50 microgram/ 20 g mice in saline: max volume 0.6 ml/A/D). Another group of the same mice were injected intraperitoneally with saline for 12 days (0.4ml). this second group of mice served as the control.
Two experienced males were introduced to each group of females and kept together for 8 days during which time the females received their daily injection. Copulation plugs were seen on each female by the 12th day of injection, and signs of pregnancy were seen on the control females on the 15-16th day of the experiment. The females delivered on 20-23 (control) and 24-27th (treated) day respectively (Table 3).
The experiment was repeated with the same females two months later, except that females of the control group were assigned to the test group, while females of the test group were reassigned to the control group. […] The control group delivered 102 pups (T/C =100%).

The test system of assay [3] is blood coagulation (citrated human blood plasma). The assay can be described thus: Blood coagulation (i), ketoaldehyde kept 1-2 seconds before plasma added. The note with it: 1-2 seconds contact. Format: biochemical. As to the method: (§1) 200 microliter thromboplastin (Ortho) was mixed with 10 microliter ketoaldehyde (KA) stock solution. Then 100 microliter citrated human blood plasma was added and the clot formation time (in seconds) was measured on a Fibrionometer. The effect of the ketoaldehyde on coagulation time was evaluated by comparing the clotting time of the KA treated plasma with the untreated control. The result (d%) was read from a special chart expressing the clotting activity.
(§2) All measurements were run in triplicates. The assay was run at 37 C (waterbath) in special tubes and all solutions were prewarmed.
(i) The plasminogen and ketoaldehyde were kept for
1-2 seconds before the blood plasma was added.

Assay [4] has as its system blood coagulation (normal plasma). The assay is described as follows: Blood coagulation (ii)(b), normal plasma. To be noted: incubation time 120 seconds. Format: biochemical, human. On the procedure:
as §1, §2
(ii) The plasminogen and KA were incubated for
varying time before the blood plasma was added.
(b) with normal plasma: clotting time = 11. 7 sec

For assay [5], the system named is skin graft rejection. The assay is described as follows: Combatting rejection mechanism: orthotopic skin transplants between Swiss albino and C3HStCrl mice. The assay is classed as in vivo. As to the method: The experiments described here were performed on random-bred Swiss albino mice (white, females, average body weight 26±3 g; Charles River CD-1-strain) and inbred C3HStCrl mice (cinnamon gray, females, average body weight […]; Charles River pedigreed breeders from L.C. Strong Foundation) and othotopic skin transplants were made in both ways, that is, white to gray and gray to white.
Standard transplantation technique (Billingham, R.E. and W.K. Silvers in Transplantation of Tissues and Cells, The Wistar Institute Press, Philadelphia, p. 8, (1961)) was utilized: From nembutal anesthetized animals 4-6 "pinch" -grafts (full thickness, 3-4 mm in diameter) of the close clipped and sterilized skin were collected from the thorax and immediately transplanted. The grafts were positioned in the "beds" (in place of the pinch-graft) and were held in position by tulle gras (vaseline-impregnated gauze) and by plaster-of-Paris impregnated bandage around the thorax.
The bandages were removed on the 6-9th day after the transplantation and the future development of the grafts was followed by macroscopical observations.
a. Animals were treated for 10 days with the composition before grafts were exchanged and treatment was discontinued on the day of transplantation.
b. Animals were not treated before the grafts were exchanged but the treatment started on the day of transplantation and continued for 10 days.
c. Animals were treated for 10 days with the drug before the grafts were exchanged and the treatment schedule was continued for 25 days after the transplantation.
+Treatment: daily injection with 3.744 mg/kg methylglyoxalmalcimide in 1.

Setting [6] is: ip, 50 microgram/20 g mice, 12 females.

For the compound `C[C@@H]1[C@H](O)[C@@H](C)/C=C/C=C/C=C/C=C/C=C/C=C/C=C/[C@H](O[C@@H]2O[C@H](C)[C@@H](O)[C@H](N)[C@@H]2O)C[C@@H]2O[C@](O)(C[C@@H](O)C[C@@H](O)[C@H](O)CC[C@@H](O)C[C@@H](O)CC(=O)O[C@H]1C)C[C@H](O)[C@H]2C(=O)O` [AMP-B, amphotericin-B, reference compound], the inhibition diameters in assay [1] (20 μliter, 24 hours (*)) came to 2 mm; in assay [1] (50 μliter, 24 hours (*)), 5 mm.

Turning to `CC(=O)CC(=O)C(=O)O` [DOV, 2,4-dioxovaleric acid, reference compound], the “inhibition diameters, in words” value in assay [1] (5-50 μliter, 24 hours (*)) is given as “negligible”.

On to `CCOC(C)C(=O)C=O` (stereo not shown) [KE, kethoxal, reference compound], for which the inhibition diameters was 7 mm in assay [1] (10 μliter, 24 hours (*)); 17 mm in assay [1] (20 μliter, 24 hours (*)); 16 mm in assay [1] (20 μliter, 48 hours (**)); 25 mm in assay [1] (50 μliter, 24 hours (*)); 24 mm in assay [1] (50 μliter, 48 hours (**)).

Consider `O=C1C=CC(=O)N1` [MALI, maleimide, reference compound], for which the inhibition diameters in assay [1] (5 μliter, 24 hours (*)) is on record as 13 mm; in assay [1] (10 μliter, 24 hours (*)), 21 mm; in assay [1] (10 μliter, 48 hours (**)), 17 mm; in assay [1] (20 μliter, 24 hours (*)) it was 29 mm; in assay [1] (20 μliter, 48 hours (**)), 25 mm; in assay [1] (50 μliter, 24 hours (*)), 30 mm. In assay [1] (50 μliter, 48 hours (**)), the inhibition diameters was found to be 30 mm.

Regarding `CC(=O)C(O)N1C(=O)C=CC1=O` (stereo not shown) [MGMALI], in assay [2] (ip, 50 microgram/20 g mice), the I % is on record as 89.7%. Also, the T/C % in assay [2] (ip, 50 microgram/20 g mice) was found to be 10.3%. Besides, in assay [2] (setting [6]), the “delivered (pups)” value amounted to 11. In assay [2] (setting [6]), this compound came in with a females that delivered of 2 female. The compound further showed an inhibition of delivery in assay [2] (second experiment, groups exchanged, two months later) of 83.3%. For the same compound, the day of delivery in assay [2] (treated females, control 20-23) is 24 to 27 days. The inhibition diameters in assay [1] (10 μliter, 24 hours (*)) is reported as 8 mm; in assay [1] (20 μliter, 24 hours (*)), 18 mm; in assay [1] (20 μliter, 48 hours (**)), 17 mm; in assay [1] (50 μliter, 24 hours (*)) it was 22 mm; in assay [1] (50 μliter, 48 hours (**)), 22 mm.

Take `O=CC(=O)Cc1ccccc1` [PMG, 3-Phenylmethylglyoxal]: the “d % (clotting activity)” value in assay [3] (control 22) was found to be 10.5%. The same compound displayed a coagulation time in assay [3] (control 24) of 36 s. Moreover, the clot entry in assay [3] (control hard) is “hard”. In assay [4], the clotting time is 21.2 s and the d% is 28%.

For the compound methylglyoxalmalcimide, the rejection in assay [5] ((a) pretreatment 10 days, printed g to 2, 31-40 days, cumulative) is listed as 100%; in assay [5] ((a) pretreatment 10 days, w to g, 26-30 days, cumulative) it was 30%; in assay [5] ((b) post graft treatment 10 days, printed g to 2, 31-40 days, cumulative), 10%; in assay [5] ((b) post graft treatment 10 days, w to g, 26-31 days, cumulative), 10%; in assay [5] ((c) pretreatment 10 days and post graft 25 days, g to w, 31-40 days, cumulative) it was 10%; in assay [5] ((c) pretreatment 10 days and post graft 25 days, w to g, 26-30 days), “No rejection”.
